Measurements: patent US20240246977A1, “DEGRADATION OF BRUTON'S TYROSINE KINASE (BTK) BY CONJUGATION OF BTK INHIBITORS WITH E3 LIGASE LIGAND AND METHOD OF USE” (BeiGene Switzerland GmbH, priority 2021, published 2024)

Legend:
BTK = BTK (Homo sapiens, UniProt Q06187); test: BTK cell degradation in TMD-8 cells, HTRF assay; type: cell-based; design: endogenous in cells; host or cells: TMD-8 cells; conditions: 6 h treatment, IC50 (DC50) of BTK degradation
Method in brief: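 BTK levels read by HTRF in lysates of TMD-8 cells exposed to compounds for 6 h, eight concentrations at 6-fold steps in 0.2% DMSO. Percent degradation versus DMSO and low controls was fitted with a four-parameter equation to give DC50; Dmax is maximal degradation.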

HEK-293 cells = test: HEK-293 cytotoxicity detection (CellTiter-Glo); type: cell-based; conditions: Homo sapiens, 72 h, 72 h incubation, CellTiter-Glo luminescence, read-out: HEK293
Method in brief: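 HEK-293 cells exposed 72 h to 8 compounds doses (4-fold dilutions, top stock 5 mM at 500×) in 0.2% DMSO. Viability by CellTiter-Glo luminescence; inhibition normalised to DMSO high control and low control, IC50 from four-parameter curve fit.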

Sequence of BTK (Q06187 whole entry): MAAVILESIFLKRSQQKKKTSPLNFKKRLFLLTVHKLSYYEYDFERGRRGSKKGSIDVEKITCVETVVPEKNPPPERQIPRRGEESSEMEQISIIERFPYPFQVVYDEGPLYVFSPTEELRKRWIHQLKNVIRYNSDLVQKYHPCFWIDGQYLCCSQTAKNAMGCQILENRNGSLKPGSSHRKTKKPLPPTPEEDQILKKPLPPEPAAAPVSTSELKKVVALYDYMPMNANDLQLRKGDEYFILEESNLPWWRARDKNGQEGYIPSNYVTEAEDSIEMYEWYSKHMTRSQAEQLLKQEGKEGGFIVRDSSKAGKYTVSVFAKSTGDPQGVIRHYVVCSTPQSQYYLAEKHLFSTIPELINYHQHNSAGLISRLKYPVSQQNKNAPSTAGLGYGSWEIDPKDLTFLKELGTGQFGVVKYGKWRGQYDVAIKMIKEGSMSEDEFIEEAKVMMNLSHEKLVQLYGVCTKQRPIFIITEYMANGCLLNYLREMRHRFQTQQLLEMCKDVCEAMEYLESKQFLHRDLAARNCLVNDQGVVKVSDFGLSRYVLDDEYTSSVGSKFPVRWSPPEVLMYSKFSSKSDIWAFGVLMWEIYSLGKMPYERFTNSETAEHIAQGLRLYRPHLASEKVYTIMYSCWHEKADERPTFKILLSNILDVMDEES

| Structure (SMILES) | DC50 (BTK) [nM] | IC50 (HEK-293 cells) [µM] |
| --- | --- | --- |
| COc1ccc2ccccc2c1C(=O)NCc1ccc(-c2nn3c(c2C(N)=O)Nc2ccc(N4CCN(CC5CCN(c6ccc(N7CCC(=O)NC7=O)cc6)CC5)CC4)cc2CC3)cc1F [Example C20, 7-(4-((1-(4-(2,4-dioxotetrahydropyrimidin-1(2H)-yl)phenyl)piperidin-4-yl)methyl)piperazin-1-yl)-2-(3-fluoro-4-((2-methoxy-1-naphthamido)methyl)phenyl)-9,10-dihydro-4H-benzo[d]pyrazolo[1,5-a][1,3]diazepine-3-carboxamide] | 0.956 | > 10 |
| COc1ccc(C(F)(F)F)cc1C(=O)NCc1ccc(-c2nn3c(c2C(N)=O)Nc2ccc(N4CCN(CC5CCN(c6ccc(N7CCC(=O)NC7=O)cc6)CC5)CC4)cc2CC3)cc1 [Example C21, 7-(4-((1-(4-(2,4-dioxotetrahydropyrimidin-1(2H)-yl)phenyl)piperidin-4-yl)methyl)piperazin-1-yl)-2-(4-((2-methoxy-5-(trifluoromethyl)benzamido)methyl)phenyl)-9,10-dihydro-4H-benzo[d]pyrazolo[1,5-a][1,3]diazepine-3-carboxamide] | 0.703 | > 10 |
| COc1cccc(OC)c1C(=O)NCc1ccc(-c2nn3c(c2C(N)=O)Nc2ccc(N4CCN(CC5CCN(c6ccc(N7CCC(=O)NC7=O)cc6)CC5)CC4)cc2CC3)cc1 [Example C22, 2-(4-((2,6-dimethoxybenzamido)methyl)phenyl)-7-(4-((1-(4-(2,4-dioxotetrahydropyrimidin-1(2H)-yl)phenyl)piperidin-4-yl)methyl)piperazin-1-yl)-9,10-dihydro-4H-benzo[d]pyrazolo[1,5-a][1,3]diazepine-3-carboxamide] | 2.12 | > 10 |
| COc1ccc(C(=O)NCc2ccc(-c3nn4c(c3C(N)=O)Nc3ccc(N5CCN(CC6CCN(c7ccc(N8CCC(=O)NC8=O)cc7)CC6)CC5)cc3CC4)cc2)c(OC)c1 [Example C23, 2-(4-((2,4-dimethoxybenzamido)methyl)phenyl)-7-(4-((1-(4-(2,4-dioxotetrahydropyrimidin-1(2H)-yl)phenyl)piperidin-4-yl)methyl)piperazin-1-yl)-9,10-dihydro-4H-benzo[d]pyrazolo[1,5-a][1,3]diazepine-3-carboxamide] | 2 | > 10 |
| COc1ccc(C(F)(F)F)cc1C(=O)NCc1ccc(-c2nn3c(c2C(N)=O)Nc2ccc(N4CCN(CC5CCN(c6ccc(N7CCC(=O)NC7=O)cc6)CC5)CC4)cc2CC3)c(F)c1 [Example C24, 7-(4-((1-(4-(2,4-dioxotetrahydropyrimidin-1(2H)-yl)phenyl)piperidin-4-yl)methyl)piperazin-1-yl)-2-(2-fluoro-4-((2-methoxy-5-(trifluoromethyl)benzamido)methyl)phenyl)-9,10-dihydro-4H-benzo[d]pyrazolo[1,5-a][1,3]diazepine-3-carboxamide] | 2.11 | > 10 |
| COc1ccc(F)c(F)c1C(=O)NCc1ccc(-c2nn3c(c2C(N)=O)Nc2ccc(N4CCN(CC5CCN(c6ccc(N7CCC(=O)NC7=O)cc6)CC5)CC4)cc2CC3)cc1 [Example C25, 2-(4-((2,3-difluoro-6-methoxybenzamido)methyl)phenyl)-7-(4-((1-(4-(2,4-dioxotetrahydropyrimidin-1(2H)-yl)phenyl)piperidin-4-yl)methyl)piperazin-1-yl)-9,10-dihydro-4H-benzo[d]pyrazolo[1,5-a] [1,3]diazepine-3-carboxamide] | 0.611 | > 10 |
| COc1ccc(C(F)(F)F)cc1C(=O)NCc1ccc(-c2nn3c(c2C(N)=O)Nc2ccc(N4CCN(CC5CCN(c6ccc(N7CCC(=O)NC7=O)cc6)CC5)CC4)cc2CC3)cc1F [Example C26, 7-(4-((1-(4-(2,4-dioxotetrahydropyrimidin-1(2H)-yl)phenyl)piperidin-4-yl)methyl)piperazin-1-yl)-2-(3-fluoro-4-((2-methoxy-5-(trifluoromethyl)benzamido)methyl)phenyl)-9,10-dihydro-4H-benzo[d]pyrazolo[1,5-a][1,3]diazepine-3-carboxamide] | 1.79 | 0.108 |
| COc1ccc(C(F)(F)F)cc1C(=O)NCc1ccc(-c2nn3c(c2C(N)=O)Nc2ccc(N4CCN(CC5CCN(c6ccc(N7CCC(=O)NC7=O)cc6)CC5)CC4)cc2CC3)c(OC)c1 [Example C27, 7-(4-((1-(4-(2,4-dioxotetrahydropyrimidin-1(2H)-yl)phenyl)piperidin-4-yl)methyl)piperazin-1-yl)-2-(2-methoxy-4-((2-methoxy-5-(trifluoromethyl)benzamido)methyl)phenyl)-9,10-dihydro-4H-benzo[d]pyrazolo[1,5-a][1,3]diazepine-3-carboxamide] | 1.76 | 0.209 |
| COc1ccc(C(F)(F)F)cc1C(=O)NCc1ccc(-c2nn3c(c2C(N)=O)Nc2ccc(N4CCN(CC5CCN(c6ccc(N7CCC(=O)NC7=O)cc6)CC5)CC4)cc2CC3)c(F)c1F [Example C28, 2-(2,3-difluoro-4-((2-methoxy-5-(trifluoromethyl)benzamido)methyl)phenyl)-7-(4-((1-(4-(2,4-dioxotetrahydropyrimidin-1(2H)-yl)phenyl)piperidin-4-yl)methyl)piperazin-1-yl)-9,10-dihydro-4H-benzo[d]pyrazolo[1,5-a][1,3]diazepine-3-carboxamide] | 1.15 | > 10 |
| COc1ccc(C2CC2)cc1C(=O)NCc1ccc(-c2nn3c(c2C(N)=O)Nc2ccc(N4CCN(CC5CCN(c6ccc(N7CCC(=O)NC7=O)cc6)CC5)CC4)cc2CC3)cc1 [Example C29, 2-(4-((5-cyclopropyl-2-methoxybenzamido)methyl)phenyl)-7-(4-((1-(4-(2,4-dioxotetrahydropyrimidin-1(2H)-yl)phenyl)piperidin-4-yl)methyl)piperazin-1-yl)-9,10-dihydro-4H-benzo[d]pyrazolo[1,5-a][1,3]diazepine-3-carboxamide] | 1.56 | > 10 |
| COc1cc(F)c(F)cc1C(=O)NCc1ccc(-c2nn3c(c2C(N)=O)Nc2ccc(N4CCN(CC5CCN(c6ccc(N7CCC(=O)NC7=O)cc6)CC5)CC4)cc2CC3)cc1 [Example C30, 2-(4-((4,5-difluoro-2-methoxybenzamido)methyl)phenyl)-7-(4-((1-(4-(2,4-dioxotetrahydropyrimidin-1(2H)-yl)phenyl)piperidin-4-yl)methyl)piperazin-1-yl)-9,10-dihydro-4H-benzo[d]pyrazolo[1,5-a][1,3]diazepine-3-carboxamide] | 0.786 | > 10 |
| COc1cc(C)ccc1C(=O)NCc1ccc(-c2nn3c(c2C(N)=O)Nc2ccc(N4CCN(CC5CCN(c6ccc(N7CCC(=O)NC7=O)cc6)CC5)CC4)cc2CC3)cc1C [Example C31, 7-(4-((1-(4-(2,4-dioxotetrahydropyrimidin-1(2H)-yl)phenyl)piperidin-4-yl)methyl)piperazin-1-yl)-2-(4-((2-methoxy-4-methylbenzamido)methyl)-3-methylphenyl)-9,10-dihydro-4H-benzo[d]pyrazolo[1,5-a][1,3]diazepine-3-carboxamide] | 7.02 | > 10 |
| COc1ccccc1C(=O)NCc1ccc(-c2nn3c(c2C(N)=O)Nc2ccc(N4CCN(CC5CCN(c6ccc(N7CCC(=O)NC7=O)cc6)CC5)CC4)cc2CC3)cc1C [Example C32, 7-(4-((1-(4-(2,4-dioxotetrahydropyrimidin-1(2H)-yl)phenyl)piperidin-4-yl)methyl)piperazin-1-yl)-2-(4-((2-methoxybenzamido)methyl)-3-methylphenyl)-9,10-dihydro-4H-benzo[d]pyrazolo[1,5-a][1,3]diazepine-3-carboxamide] | 3.1 | > 10 |
| COc1cc(F)c(F)cc1C(=O)NCc1ccc(-c2nn3c(c2C(N)=O)Nc2ccc(N4CCN(CC5CCN(c6ccc(N7CCC(=O)NC7=O)cc6)CC5)CC4)cc2CC3)cc1C [Example C33, 2-(4-((4,5-difluoro-2-methoxybenzamido)methyl)-3-methylphenyl)-7-(4-((1-(4-(2,4-dioxotetrahydropyrimidin-1(2H)-yl)phenyl)piperidin-4-yl)methyl)piperazin-1-yl)-9,10-dihydro-4H-benzo[d]pyrazolo[1,5-a][1,3]diazepine-3-carboxamide] | 9.19 | > 10 |
| COc1ncccc1C(=O)NCc1ccc(-c2nn3c(c2C(N)=O)Nc2ccc(N4CCN(CC5CCN(c6ccc(N7CCC(=O)NC7=O)cc6)CC5)CC4)cc2CC3)cc1C [Example C34, 7-(4-((1-(4-(2,4-dioxotetrahydropyrimidin-1(2H)-yl)phenyl)piperidin-4-yl)methyl)piperazin-1-yl)-2-(4-((2-methoxynicotinamido)methyl)-3-methylphenyl)-9,10-dihydro-4H-benzo[d]pyrazolo[1,5-a][1,3]diazepine-3-carboxamide] | 3.91 | > 10 |
| COc1ccncc1C(=O)NCc1ccc(-c2nn3c(c2C(N)=O)Nc2ccc(N4CCN(CC5CCN(c6ccc(N7CCC(=O)NC7=O)cc6)CC5)CC4)cc2CC3)cc1C [Example C35, 7-(4-((1-(4-(2,4-dioxotetrahydropyrimidin-1(2H)-yl)phenyl)piperidin-4-yl)methyl)piperazin-1-yl)-2-(4-((4-methoxynicotinamido)methyl)-3-methylphenyl)-9,10-dihydro-4H-benzo[d]pyrazolo[1,5-a][1,3]diazepine-3-carboxamide] | 1.1 | > 10 |
| COc1cccnc1C(=O)NCc1ccc(-c2nn3c(c2C(N)=O)Nc2ccc(N4CCN(CC5CCN(c6ccc(N7CCC(=O)NC7=O)cc6)CC5)CC4)cc2CC3)cc1C [Example C36] | 6.66 | > 10 |
